Measured values reported in patent publication US20230270817A1, “VIMENTIN INHIBITORS” (Filamon Pty Ltd, priority 2020, published 2023).
“Also recorded” adds a separate entry of the source. Values belong to the molecule of their own block, whether it stands above or below them. Non-standard residues stand in square brackets, D forms with d. 2Nal = N[C@@H](Cc1ccc2ccccc2c1)C(=O)O

Key:
[1] = target: T1, hGIIA binding to full length vimentin (Homo sapiens, UniProt P08670); assay: Colorimetric enzyme immunoassay (EIA) of inhibitor effect on the hGIIA-vimentin interaction, full length vimentin; conditions: immobilised full length vimentin, hGIIA 250 ng/mL, inhibitors 5-100 μM, FIG. 2B top panel
T1 construct: His6 tag (HHHHHH) from pET15b (N); thrombin cleavage site (LVPRGS) (N); made in house; host or cells: vimentin: Rosetta 2 E. coli (pET15b)
T1 sequence (P08670 whole entry): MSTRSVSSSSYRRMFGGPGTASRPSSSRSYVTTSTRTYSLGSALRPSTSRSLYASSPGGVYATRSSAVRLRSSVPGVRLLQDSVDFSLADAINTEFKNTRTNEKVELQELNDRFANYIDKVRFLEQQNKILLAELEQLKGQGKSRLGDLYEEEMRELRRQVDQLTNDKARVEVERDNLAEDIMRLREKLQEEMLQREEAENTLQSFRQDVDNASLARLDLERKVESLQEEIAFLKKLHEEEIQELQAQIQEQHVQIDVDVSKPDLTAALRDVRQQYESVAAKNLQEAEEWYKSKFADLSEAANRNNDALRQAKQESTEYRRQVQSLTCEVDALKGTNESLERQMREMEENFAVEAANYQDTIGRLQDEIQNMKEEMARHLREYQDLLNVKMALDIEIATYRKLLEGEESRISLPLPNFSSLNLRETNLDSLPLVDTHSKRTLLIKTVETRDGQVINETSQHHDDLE
Description: (§1) Purified vimentin protein solutions (full length, coil 1 or coil 2 fragments) were diluted to 10-20 μg/mL concentration in PBS and seeded to a 96-well microplate with a 100 μL/well volume. After an overnight incubation at 4° C., the plate was emptied. Each well was then blocked with 200 μL of 1% BSA in PBS. The blocked plate was incubated for at least an overnight period at 4° C. and used within 1 week.

[2] = test system: LNCaP prostate cancer cells; assay: Murine prostate cancer xenograft model; format: in vivo, male Balb/c nu/nu mice; conditions: c2 0.1 mg/kg in saline thrice weekly, eight-week period, compared to vehicle
Description: Animals (male Balb/c nu/nu mice, aged six weeks, n=15 per group) were injected subcutaneously in the right rear flank with 1×10^6 LNCaP prostate cancer cells. Tumour size was monitored with calipers measuring tumour width and length and tumour volume calculated as described (Sved et al., Cancer Res, 2004. 64(19): p. 6934-40). When tumours were palpable and measured >5×5 mm, animals were randomised and entered into the study. […] Tumour volume data are mean±SE.

[3] = target: T2, vimentin coil 1 fragment (residues 96 to 253), recombinant, His-tagged (human, UniProt P08670 96-253); assay: EIA, plate-bound vimentin coil 1, detection with 4A1-AP
T2 construct: Removal of the tag is not reported; also called coil 1 segment
T2 sequence (P08670 other isoform, or with tags, fused parts or gaps): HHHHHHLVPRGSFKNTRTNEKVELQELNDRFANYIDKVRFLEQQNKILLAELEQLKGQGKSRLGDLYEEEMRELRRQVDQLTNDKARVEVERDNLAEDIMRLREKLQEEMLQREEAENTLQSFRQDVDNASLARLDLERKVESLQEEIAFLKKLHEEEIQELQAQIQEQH
Description: as §1

Molecule: CCc1c(CC(N)=O)c2cc(OCCCP(=O)(O)O)ccc2n1Cc1ccccc1 [LY311727, [3-[[3-(2-amino-2-oxoethyl)-2-ethyl-1-(phenylmethyl)-1H-indol-5-yl]oxy]propyl]-phosphonic acid]
inhibition of hGIIA binding to full length vimentin [1]: c2 exhibited greater inhibition of hGIIA binding to full length vimentin than LY311727

Molecule: cyclo-((2-Nal)-Leu-Ser-(2-Nal)-Arg) (cyclo([2Nal]LS[2Nal]R); SMILES CC(C)C[C@@H]1NC(=O)[C@H](Cc2ccc3ccccc3c2)NC(=O)[C@H](CCCNC(=N)N)NC(=O)[C@H](Cc2ccc3ccccc3c2)NC(=O)[C@H](CO)NC1=O)
growth in tumour volume [2]: significantly reduced the growth in tumour volume; also recorded: potently slows the growth of prostate cancer

binding result [3]: no binding (tested: 5-1000 ng/mL hGIIA)
B1: human group IIA secreted phospholipase A2 (hGIIA), recombinant, purified from conditioned media of CHO cell line 2B1 (enzyme)
chain: NLVNFHRMIKLTTGKEAALSYGFYGCHCGVGGRGSPKDATDRCCVTHDCCYKRLEKRGCGTKFLSYKFSNSGSRITCAKQDSCRSQLCECDKAAATCFARNKTTYNKKYQYYSNKHCRGSTPRC
notes: this was not applied; also called human sPLA2-IIA; sPLA2
